SMILES strings stand for the structures.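 Step 1: Grow cells in 96-well plates. Step 2: Expose to compound for 48 hours at 5 concentrations. Step 3: Interpolate endpoints linearly; if unreached, use highest concentration. GI50: concentration for 50% inhibition of growth. Definition used: TGI = concentration required for complete inhibition of growth.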 Some results are limits rather than exact numbers.

The test system of the first assay is MDA-MB-435. Put plainly: NCI tumour cell line growth inhibition, 48 h.
As to `COc1ccc(/C=C2\CCC/C(=C\c3ccc(OC)c(OC)c3)C2=O)cc1OC`, the GI50 was 1.1 µM and the TGI was greater than 32.5 µM.

The next assay has as its system IGROV1 ovarian. Description: NCI tumour cell line growth inhibition, 48 h.
Turning to `CCOC(=O)C1=C(NC)OCC1=O`, the TGI was greater than 100 µM.

In the case of `CCOC(=O)C1(C)CCC(C(C(=O)O)C(=O)O)CC1=O` (configuration not stated), the TGI was greater than 100 µM.

For the compound `COC(=O)C1=C(C(=O)OC)C2(c3ccccc3)OC1(c1ccccc1)c1cc3ccccc3cc12`, the TGI was 3.78 µM.

For `CC1NOC(=O)C1N=Nc1ccc(Cl)cc1Cl` (configuration not stated), the TGI was determined as 85.7 µM.

As for `O=C(c1ccccc1)[C@H]1Nc2ccc(Cl)cc2[C@H]2CCC[C@@H]12`, the TGI is greater than 100 µM.

The compound `COc1ccc2nc(NC(=O)C(=O)CC(=O)c3ccc([N+](=O)[O-])cc3)sc2c1` yielded a TGI greater than 100 µM.

`CC(=O)Nc1ccc(C2CC(c3ccc([N+](=O)[O-])cc3)=Nc3ccccc3S2=O)cc1` (configuration not stated): the TGI stood at 34.7 µM.

The compound `COc1cc(/C=C2\NC(=O)C(Cc3cc(OC)c(OC)c(C)c3OC)N(C(C)=O)C2=O)c(OC)c(C)c1OC` (configuration not stated) had a TGI greater than 100 µM.

`C[C@H](C(=O)O)C(=O)NC(=O)N(Cc1ccccc1)N=O` had a TGI greater than 100 µM.

For the compound `NNC(=O)C(=O)NN=C(C(Cl)(Cl)CO)C(Cl)(Cl)CO`, the TGI was greater than 100 µM.

With `O=C1N[C@@H]2CCCC[C@@H]2C12CCCCC2`, the TGI was greater than 100 µM.

`COc1ccc2ccccc2c1C1=NC(C)(C)CO1` gave a TGI greater than 100 µM.

In turn, `NC1=NC(Cn2nc(-c3ccccc3)c3ccccc3c2=O)=NNC(=O)N1` had a TGI greater than 100 µM.

Take `O=C(NCCc1ccccc1)C1C(=O)C(=O)N(CCc2ccccc2)C1=O` (configuration not stated): the TGI was greater than 100 µM.

Take `OC(c1ccccc1Br)(c1ccccc1Br)C(F)(F)F`: the TGI is greater than 100 µM.

In turn, `NC(N)=NCCCC(NCc1c2ccccc2nc2ccccc12)C(=O)O` (configuration not stated) gave a TGI greater than 100 µM.

Turning to `CC(=O)OC1COC(N2CCc3cc([N+](=O)[O-])ccc32)C(OC(C)=O)C1OC(C)=O` (configuration not stated), the TGI is greater than 100 µM.

Turning to `CCOC(=O)C1S(=O)(=O)OCCOS1(=O)=O`, the TGI is greater than 100 µM.

`CC12OC(=O)C(C#N)C1(C)C1C(=O)CCCC12` (configuration not stated): the TGI was greater than 100 µM.

Consider `Cc1nc2ccccc2c(=O)n1/N=C(\N=Nc1ccccc1Cl)c1ccccc1Cl`, for which the TGI was greater than 100 µM.

`O=[N+]([O-])c1ccc(-c2ccc(C3=Nn4c(CNc5ccccc5Cl)nnc4SC3)o2)cc1`: the TGI was greater than 100 µM.

As to `Cc1cc(Br)c(NC(=O)c2c(-c3c(Cl)cccc3Cl)noc2C)c(Br)c1`, the GI50 is greater than 100 µM and the TGI was greater than 100 µM.

In the case of `OCC1CC[N-]CC1.OCC1CC[N-]CC1.[Cl][Pt+2]([Cl])([Cl])[Cl]`, the GI50 was 25.2 µM.

Regarding `CC(=O)OCC(=O)[C@@]1(O)CC[C@H]2[C@@H]3C[C@H](C)C4=CC(=O)C=C[C@]4(C)[C@@]3(F)[C@@H](O)C[C@@]21C`, the TGI is greater than 100 µM.

In the case of `OCCCCC#Cc1ccccc1C#Cc1cccc(C(F)(F)F)c1`, the GI50 is 14.4 µM and the TGI was 28.5 µM.

Compound `COc1cc(/C=C/c2csnn2)cc(OC)c1OC` came in with a TGI greater than 100 µM.

Compound `c1ccc(C(c2ccccc2)c2ccccn2)cc1` returned a TGI greater than 100 µM.

Regarding `CC(C)[C@@H]1CC[C@]2(CO2)[C@@H]2C(=O)OCC(C(=O)O)=C[C@H]21`, the GI50 is 0.442 µM and the TGI was 8.73 µM.

On to `COc1ccc(/C=C2\CCC/C(=C\c3ccc(OC)c(OC)c3)C2=O)cc1OC`, for which the GI50 is 1.72 µM and the TGI is greater than 32.5 µM.

Another assay concerns SN12C renal. Put plainly: NCI tumour cell line growth inhibition, 48 h.
In turn, `CCOC(=O)C1=C(NC)OCC1=O` came in with a TGI greater than 100 µM.

Consider `CCOC(=O)C1(C)CCC(C(C(=O)O)C(=O)O)CC1=O` (configuration not stated), for which the TGI was greater than 100 µM.

In turn, `COC(=O)C1=C(C(=O)OC)C2(c3ccccc3)OC1(c1ccccc1)c1cc3ccccc3cc12` registered a TGI of 4.18 µM.

In turn, `CC1NOC(=O)C1N=Nc1ccc(Cl)cc1Cl` (configuration not stated) registered a TGI of 49.1 µM.

For `O=C(c1ccccc1)[C@H]1Nc2ccc(Cl)cc2[C@H]2CCC[C@@H]12`, the TGI was determined as 92.5 µM.

Take `COc1ccc2nc(NC(=O)C(=O)CC(=O)c3ccc([N+](=O)[O-])cc3)sc2c1`: the TGI was greater than 100 µM.

For the compound `CC(=O)Nc1ccc(C2CC(c3ccc([N+](=O)[O-])cc3)=Nc3ccccc3S2=O)cc1` (configuration not stated), the TGI was 72.2 µM.

On to `COc1cc(/C=C2\NC(=O)C(Cc3cc(OC)c(OC)c(C)c3OC)N(C(C)=O)C2=O)c(OC)c(C)c1OC` (configuration not stated), for which the TGI is greater than 100 µM.

For the compound `C[C@H](C(=O)O)C(=O)NC(=O)N(Cc1ccccc1)N=O`, the TGI was greater than 100 µM.

`NNC(=O)C(=O)NN=C(C(Cl)(Cl)CO)C(Cl)(Cl)CO` returned a TGI greater than 100 µM.

In turn, `O=C1N[C@@H]2CCCC[C@@H]2C12CCCCC2` came in with a TGI greater than 100 µM.

Compound `COc1ccc2ccccc2c1C1=NC(C)(C)CO1` had a TGI greater than 100 µM.

`NC1=NC(Cn2nc(-c3ccccc3)c3ccccc3c2=O)=NNC(=O)N1` displayed a TGI greater than 100 µM.

In turn, `O=C(NCCc1ccccc1)C1C(=O)C(=O)N(CCc2ccccc2)C1=O` (configuration not stated) came in with a TGI greater than 100 µM.

In the case of `OC(c1ccccc1Br)(c1ccccc1Br)C(F)(F)F`, the TGI was 38.6 µM.

As for `NC(N)=NCCCC(NCc1c2ccccc2nc2ccccc12)C(=O)O` (configuration not stated), the TGI is greater than 100 µM.

The compound `CCOC(=O)C1S(=O)(=O)OCCOS1(=O)=O` displayed a TGI greater than 100 µM.

`CC12OC(=O)C(C#N)C1(C)C1C(=O)CCCC12` (configuration not stated) showed a TGI greater than 100 µM.

The compound `Cc1nc2ccccc2c(=O)n1/N=C(\N=Nc1ccccc1Cl)c1ccccc1Cl` yielded a TGI greater than 100 µM.

The compound `O=[N+]([O-])c1ccc(-c2ccc(C3=Nn4c(CNc5ccccc5Cl)nnc4SC3)o2)cc1` came in with a TGI greater than 100 µM.

On to `Cc1cc(Br)c(NC(=O)c2c(-c3c(Cl)cccc3Cl)noc2C)c(Br)c1`, for which the GI50 was greater than 100 µM and the TGI was greater than 100 µM.

For the compound `OCC1CC[N-]CC1.OCC1CC[N-]CC1.[Cl][Pt+2]([Cl])([Cl])[Cl]`, the GI50 is 30.8 µM.

`CCCC(=O)CC(C)C(=O)C(=O)NC12CC3CC(CC(C3)C1)C2` (configuration not stated) had a TGI greater than 100 µM.

On to `OCCCCC#Cc1ccccc1C#Cc1cccc(C(F)(F)F)c1`, for which the GI50 is 18.9 µM and the TGI worked out at 33 µM.

In the case of `COc1cc(/C=C/c2csnn2)cc(OC)c1OC`, the TGI was greater than 100 µM.

As to `c1ccc(C(c2ccccc2)c2ccccn2)cc1`, the TGI is greater than 100 µM.

For `CC(C)[C@@H]1CC[C@]2(CO2)[C@@H]2C(=O)OCC(C(=O)O)=C[C@H]21`, the GI50 is 0.32 µM and the TGI was greater than 20.1 µM.

Turning to `COc1ccc(/C=C2\CCC/C(=C\c3ccc(OC)c(OC)c3)C2=O)cc1OC`, the GI50 is 8.79 µM and the TGI is greater than 32.5 µM.
